Data taken from patent US20170015649A1, “N-Thio-anthranilamid compounds and their use as pesticides” (BASF SE, priority 2005, published 2017).

Tests used:
[1] = system: Oat Aphid (Rhopalosiphum padi); experiment: Activity against oat aphid, barley leaf disks; assay type: in vivo; conditions: 2500 ppm; leaf disks sprayed with 2.5 μl; 5 days; compared to 0% mortality of untreated controls
Experimental: Barlay leaf disk were placed into microtiterplates filled with 0.8% agar-agar and 2.5 ppm OPUS™. The leaf disks were sprayed with 2.5 μl of the test solution and 3 to 8 adult aphids were placed into the microtiterplates which were then closed and kept at 22-24° C. and 35-45% humidity under fluorescent light for 5 days. Mortality was assessed on the basis of vital aphids. Tests were replicated 2 times.

[2] = system: Cotton Aphid (Aphis gossypii); experiment: Activity against cotton aphid, cotton cotyledon dip; assay type: in vivo; conditions: 120 h, cotyledons dipped, after 5 days
Description: (§1) The active compounds were formulated in 50:50 acetone:water and 100 ppm Kinetic™ surfactant.
Cotton plants at the cotyledon stage (one plant per pot) were infested by placing a heavily infested leaf from the main colony on top of each cotyledon. The aphids were allowed to transfer to the host plant overnight, and the leaf used to transfer the aphids was removed. The cotyledons were dipped in the test solution and allowed to dry. After 5 days, mortality counts were made.

[3] = system: Vetch Aphid (Megoura viciae); experiment: Activity against vetch aphid, bean leaf disks; assay type: in vivo; conditions: foliar, 144 h, 2500 ppm, leaf disks sprayed with 2.5 μl, 6 days, compared to 0% mortality of untreated controls, read-out: mortality
Experimental: Bean leaf disks were placed into microtiterplates filled with 0.8% agar-agar and 2.5 ppm OPUS™. The leaf disks were sprayed with 2.5 μl of the test solution and 5 to 8 adult aphids were placed into the microtiterplates which were then closed and kept at 22-24° C. and 35-45% under fluorescent light for 6 days. Mortality was assessed on the basis of vital, reproduced aphids. Tests were replicated 2 times.

[4] = system: Yellowfever Mosquito (Aedes aegyptii); experiment: Activity via glass contact; assay type: in vivo
Description: 10. Activity Against Argentine Ant (Linepithema humile), Harvester Ant (Pogonomyrmex Californicus), Acrobat Ant (Crematogaster Spp.), Carpenter Ant (Camponotus floridanus), Fire Ant (Solenopsis invicta), House Fly (Musca domestica), Stable Fly (Stomoxys calcitrans), Flesh Fly (Sarcophaga sp.), Yellowfever Mosquito (Aedes aegyptii), House Mosquito (Culex quinquefasciatus), Malaria Mosquito (Anopheles albimanus), German Cockroach (Blattella Germanica), Cat Flea (Ctenocephalides felis), and Brown Dog Tick (Rhipicephalus sanguineus) Via Glass Contact
Glass vials were treated with 0.5 ml of a solution of active ingredient in acetone and allowed to dry. Insects or ticks were placed into each vial together with some food and moisture supply.

[5] = system: Tobacco Budworm (Heliothis virescens); experiment: whole plant or invertebrate; conditions: 144 h
[6] = system: Southern Armyworm (Spodoptera eridania), 2nd Instar Larvae; experiment: whole plant or invertebrate; assay type: in vivo; conditions: in Phaseolus lunatus, foliar, 120 h, 300 ppm, leaf dipped, at 5 days, read-out: mortality
Experimental: The active compounds were formulated for testing the activity against insects and arachnids as a 10.000 ppm solution in a mixture of 35% acetone and water, which was diluted with water, if needed.
A Sieva lima bean leaf was dipped in the test solution and allowed to dry. The leaf was then placed in a petri dish containing a filter paper on the bottom and ten 2nd instar caterpillars. At 5 days, observations are made of mortality and reduced feeding.

[7] = system: Boll Weevil (Anthonomus grandis); experiment: Activity against boll weevil, eggs in microtiterplates; assay type: in vivo; conditions: eggs sprayed with 20 μl test solution, 3 to 5 days
Experimental: 10 to 15 eggs were placed into microtiterplates filled with 2% agar-agar in water and 300 ppm formaline. […] Mortality was assessed on the basis of the remaining unhatched eggs or larvae on the agar surface and/or quantity and depth of the digging channels caused by the hatched larvae. Tests were replicated 2 times.

[8] = system: Yellowfever Mosquito (Aedes aegyptii) Larvae; experiment: Activity against mosquito larvae via water treatment; assay type: in vivo; conditions: 10 ppm, water treatment, 4th-instar larvae, read-out: mortality of yellowfever mosquito
Experimental: 11. Activity Against Yellowfever Mosquito (Aedes aegyptii), House Mosquito (Culex quinquefasciatus) and Malaria Mosquito (Anopheles albimanus) Larvae Via Water Treatment
Well plates were used as test arenas. The active ingredient was dissolved in acetone and diluted with water to obtain the concentrations needed. The final solutions containing appr. 1% acetone were placed into each well. Approximately 10 mosquito larvae (4th-instars) in 1 ml water were added to each well. Larvae were fed one drop of liver powder each day. The dishes were covered and maintained at 22° C. Mortality was recorded daily and dead larvae and live or dead pupae were removed daily. At the end of the test remaining live larvae were recorded and percent mortality was calculated.

[9] = system: Silverleaf Whitefly (Bemisia argentifolii); experiment: Activity against silverleaf whitefly, cotton cotyledon dip; assay type: in vivo; conditions: 72 h, cotyledons dipped, adults, 3 days after treatment
Experimental: as §1
Selected cotton plants were grown to the cotyledon state (one plant per pot). The cotyledons were dipped into the test solution to provide complete coverage of the foliage and placed in a well-vented area to dry. Each pot with treated seedling was placed in a plastic cup and 10 to 12 whitefly adults (approximately 3-5 day old) were introduced. The insects were collected using an aspirator and an 0.6 cm, non-toxic Tygon™ tubing (R-3603) connected to a barrier pipette tip. The tip, containing the collected insects, was then gently inserted into the soil containing the treated plant, allowing insects to crawl out of the tip to reach the foliage for feeding. The cups were covered with a reusable screened lid (150 micron mesh polyester screen PeCap from Tetko Inc). Test plants were maintained in the holding room at about 25° C. and 20-40% relative humidity for 3 days avoiding direct exposure to the fluorescent light (24 hour photoperiod) to prevent trapping of heat inside the cup. Mortality was assessed 3 days after treatment of the plants.

[10] = system: Diamond Back Moth (Plutella xylostella); experiment: Activity against diamond back moth, cabbage leaf disk dip; assay type: in vivo; conditions: foliar, 300 ppm, leaf disk dipped, third instar larvae, after 72 h, read-out: mortality
Experimental: The active compounds were formulated in 50:50 acetone:water and 0.1% (vol/vol) Alkamuls EL 620 surfactant. A 6 cm leaf disk of cabbage leaves was dipped in the test solution for 3 seconds and allowed to air dry in a Petri plate lined with moist filter paper. The leaf disk was inoculated with 10 third instar larvae and kept at 25-27° C. and 50-60% humidity for 3 days. Mortality was assessed after 72 h of treatment.

`Cc1cc(Cl)cc(C(=O)N=S(C(C)C)C(C)C)c1NC(=O)c1cc(C(F)(F)F)nn1-c1ncccc1Cl` [I.3-1] was tested, and the mortality [1] was “over 75%”.

`Cc1cc(Cl)cc(C(=O)N=S(C)C)c1NC(=O)c1cc(Br)nn1-c1ncccc1Cl` [I.3-4] was tested, and the mortality at 300 ppm [2] was greater than 50%, the mortality at 2500 ppm [3] was greater than 75% and the mortality at 10 ppm [4] was greater than 70%. The mortality at 2500 ppm [5] was greater than 75%, the mortality at 300 ppm [6] was greater than 75% and the mortality at 2500 ppm [7] was greater than 75%. It also gave a mortality at 10 ppm [8] greater than 70% and a mortality at 300 ppm [9] greater than 90%.

Work on `Cc1cccc(C(=O)N=S(C)C)c1NC(=O)c1cc(Br)nn1-c1ncccc1Cl` [I.3-7] yielded a mortality at 300 ppm [2] greater than 50%, a mortality at 2500 ppm [3] greater than 75% and a mortality at 300 ppm [10] greater than 75%. The mortality at 2500 ppm [5] was greater than 75%, the mortality at 300 ppm [6] was greater than 75% and the mortality at 2500 ppm [7] was greater than 75%. It also gave a mortality at 10 ppm [8] greater than 70%.
